Experimental data from patent publication US5744453A, “Polyamine conjugates for treatment of infection” (priority 1996, dated 1998).
≈ marks a conversion by molar mass, not a printed value.

Experiments:
[1] = test system: Pseudomonas aeruginosa 27853; assay: Determination of MIC against bacteria (Table 1), P. aeruginosa 27853; type: cell-based; conditions: Pseudomonas aeruginosa, 27853, 24 h, read-out: minimum inhibitory concentration (MIC), P. aeruginosa 27853
Procedure: (§1) Antibiotic indicator strains Escherichia coli strain 25922, Enterococcus faecalis 29212, Pseudomonas aeruginosa 27853, and Staphylococcus aureus 29213 are obtained from the American Type Tissue Culture Collection (ATCC) in Rockville, Md. The cystic fibrosis isolate, Pseudomonas aeruginosa 39324, is also obtained from ATCC. Bacteria are routinely cultivated in cation-supplemented Mueller-Hinton broth (CAMHB) or agar at 37° C.
(§2) The minimum inhibitory concentration (MIC) of glycosylated and non-glycosylated steroidal polyamines for antibiotic indicator strains is determined by dissolving the test compounds in deionized water to a final concentration of 1 mg per mL. […] These solutions are sterilized by filtration through 0.22 micron syringe filters.
(§3) Stock solutions of individual compounds are serially diluted (two-fold) in sterile CAMHB in 96-well tissue culture dishes (Falcon) and inoculated with antibiotic indicator strains that are prepared as described below.
(§4) Antibiotic indicator strains are grown in 5 mL of CAMHB for 3-4 h at 37° C. with shaking (200 rpm) on a New Brunswick rotary shaker. Bacteria are adjusted to a turbidity that matched a 0.5 McFarland standard (ca. 10^8 CFU per mL) in sterile 0.85% saline. These bacterial suspensions are diluted 1:20 in sterile 0.85% saline and 10 μL (ca. […]) of each suspension is used to inoculate individual wells of a 96 well plate that contained different concentrations of the test compounds. Following inoculation, the plates are sealed with plastic tape, incubated for 24 h at 37° C. and visually inspected for bacterial growth. CAMHB inoculated with each of the antibiotic test strains and uninoculated CAMBH plus each of the test compounds served as positive and negative controls.

[2] = Stability of a 5% solution of the trifluoroacetate salt at room temperature; type: physicochemical
Procedure: (§5) To a solution of spermine (0.8 g, 2 mmol) and triethylamine (0.3 mL) in 5 mL of DMF is added dropwise the N-oxysuccinimidechenodeoxycholate (1.0 g, 2 mmol) in 5 mL of DMF. The mixture is stirred overnight at room temperature, then poured into DCM (100 mL). The precipitate of the hydroxysuccinimide is filtered, and the filtrate is evaporated to give a liquid phase, which is poured into water (100 mL). The precipitate of the product is obtained. It is dissolved in MeOH (5 mL) and passed through a CHP-20 reverse-phase column. A […] in water solvent system is used to elute the product. The solvent is removed by evaporation, and the residue is dissolved in 1 mL of trifluoroacetic acid. The resulting solution is diluted up to 10 mL with water, filtered, and the filtrate subsequently lyophilized to afford 0.9 g (50% yield) of a solid (m.p. 96°-100° C.). […] A 5% solution of the trifluoroacetate salt of the chenodeoxycholic acid-spermine conjugate is stable at room temperature over about 12-24 h, after which a precipitate of the base separates as a slurry. TLC (MeOH:i-PrNH2 :DCM 1:1:2) Rf 0.7. IR (KBr): 3406, 2939, 2869, 1778 (COOH), 1680 (CONH--), 1553, 1458, 1196, 834, 722 cm^-1. ^1 H NMR (D2 O): δ3.75 (s, 1H), 3.4 (s, 1H), 2.8-3.15 (m, 12H), 2.2-1.2 (m, 39H), 0.9 (d, 3H), 0.86 (s, 3H), 0.55 (s, 3H). Fab MS: (M+Na^+)=598. Anal. Calc. for C34 H64 N4 O3.3CF3 COOH: C 52.5; H 7.29; N 6.09. […]

[3] = test system: Pseudomonas aeruginosa 39324; assay: Determination of MIC against bacteria (Table 1), P. aeruginosa 39324 (cystic fibrosis isolate); type: cell-based; conditions: Pseudomonas aeruginosa, 39324, 24 h, read-out: minimum inhibitory concentration (MIC), P. aeruginosa 39324
Procedure: as §1, §2, §3, §4

Solubility in water = type: physicochemical; conditions: trifluoroacetate salt
Procedure: as §5

[4] = test system: Staphylococcus aureus 29213; assay: Determination of MIC against bacteria (Table 1), S. aureus 29213; type: cell-based; conditions: Staphylococcus aureus, 29213, 24 h, read-out: minimum inhibitory concentration (MIC), S. aureus 29213
Procedure: as §1, §2, §3, §4

[5] = test system: Enterococcus faecalis 29212; assay: Determination of MIC against bacteria (Table 1), E. faecalis 29212; type: cell-based; conditions: Enterococcus faecalis, 29212, 24 h, read-out: minimum inhibitory concentration (MIC), E. faecalis 29212
Procedure: as §1, §2, §3, §4

[6] = test system: Escherichia coli strain 25922; assay: Determination of MIC against bacteria (Table 1), E. coli 25922; type: cell-based; conditions: Escherichia coli, 25922, 24 h, read-out: minimum inhibitory concentration (MIC), E. coli 25922
Procedure: as §1, §2, §3, §4

E. coli 25922 = assay: Augmentation assay: MIC of erythromycin (Table 2), E. coli 25922; type: cell-based; conditions: Escherichia coli, 25922, 24 h, read-out: MIC of erythromycin, E. coli 25922
Procedure: (§6) Stock solutions 1-2 mg/mL of test compounds are prepared in distilled water, filter-sterilized through a […] filter and diluted in CAMHB to the desired starting concentration. Aliquots of each test compound (0.1 mL), at 2× the final concentration, are added to the first rows of 96 well plates. The remaining wells of these plates are charged with 0.1 mL aliquots of each test compound at the desired final concentration. Subsequently, 0.1 mL of solutions of erythromycin, gentamicin, or vancomycin, prepared in CAMHB, are added to the first rows of these plates and serially diluted.
(§7) The wells are inoculated in duplicate with each of four antibiotic indicator strains prepared as described previously above. The final concentrations of antibiotics tested in these experiments range from 0.185-250 μg per mL. Plates containing each of the antibiotics serially diluted in CAMHB alone are also inoculated with antibiotic indicator strains to determine the MIC of erythromycin, gentamicin and vancomycin in the absence of the compounds of the invention. The plates are sealed with plastic tape, incubated in for 24 h at 37° C., visually inspected for bacterial growth. The MIC of erythromycin, gentamicin and vancomycin for each of the indicator strains in the presence or absence of test compound is subsequently determined.

P. aeruginosa 39324 = assay: Augmentation assay: MIC of erythromycin (Table 2), P. aeruginosa 39324; type: cell-based; conditions: Pseudomonas aeruginosa, 39324, 24 h, read-out: MIC of erythromycin, P. aeruginosa 39324
Procedure: as §6, §7

P. aeruginosa 27853 = assay: Augmentation assay: MIC of erythromycin (Table 2), P. aeruginosa 27853; type: cell-based; conditions: Pseudomonas aeruginosa, 27853, 24 h, read-out: MIC of erythromycin, P. aeruginosa 27853
Procedure: as §6, §7

Structure (SMILES) | MIC [1] | stability of 5% solution, time before a precipitate of the base separates [2] | MIC [3] | solubility in water (Solubility in water) | MIC [4] | MIC [5] | MIC [6] | MIC (E. coli 25922) | MIC (P. aeruginosa 39324) | MIC (P. aeruginosa 27853)
C[C@H](CCC(=O)NCCCNCCCCNCCCN)[C@H]1CC[C@H]2[C@@H]3[C@H](O)C[C@@H]4C[C@H](O)CC[C@]4(C)[C@H]3CC[C@]12C [Compound H, 3α,7α-dihydroxy-12-deoxy-5β-cholan-24-oic acid, N-(4,9-diaza-12-aminododecyl)amide] | 12.5 µg/mL (≈ 21.7 µM) | 12 to 24 h | 50 to 100 µg/mL (≈ 86.7 to 173 µM) | soluble in water | 6.25 µg/mL (≈ 10.8 µM) | 3.12 µg/mL (≈ 5.41 µM) | 25 µg/mL (≈ 43.3 µM) | – | – | –
CC[C@H]1OC(=O)[C@H](C)[C@@H](O[C@H]2C[C@@](C)(OC)[C@@H](O)[C@H](C)O2)[C@H](C)[C@@H](O[C@@H]2O[C@H](C)C[C@H](N(C)C)[C@H]2O)[C@](C)(O)C[C@@H](C)C(=O)[C@H](C)[C@@H](O)[C@]1(C)O [Erythromycin, erythromycin] | – | – | – | – | – | – | – | 125 µg/mL | > 250 µg/mL | > 250 µg/mL
